Laboratory results from article PMC12612973, “Inhibition of Human Amylin Aggregation: In Silico and In Vitro Studies” (ACS Omega, 2025).
Values joined by “and” are separate entries in the source; they are usually repeats but may differ in a detail not shown here. Equal entries are not always repeated.

How the values were obtained:
human amylin (hIAPP) [1] = target: T1, human amylin (hIAPP) (Homo sapiens, UniProt P10997); test: Dynamic light scattering (DLS) assay of amylin aggregation; assay type: biochemical; details: 36 h incubation; for inhibition at 10 µM: compound 10 μM, amylin 15 μM, 3 trials, read-out: DLS inhibition % (mean ± SEM)
T1 construct: purchased Bachem USA
T1 sequence (P10997 34-70 limits assumed): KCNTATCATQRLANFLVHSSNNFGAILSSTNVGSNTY
Protocol: (§1) A stock solution of amylin (1 mM) (purchased from Bachem USA), peptide sequence: […] amide (with disulfide bond between Cys2 and Cys7), was prepared in 100% hexafluoroisopropyl alcohol (HFIP) (purchased from Sigma-Aldrich) and stored at −20 °C. , Aliquots of amylin peptide were filtered through a 0.22 μm filter from the stock solution and freeze-dried. For kinetic experiments, 15 μM of amylin was prepared in 50 mM Tris-HCl buffer (pH 7.4), as investigated in previous studies by Chaari et al., , Samples of amylin were prepared in the presence or absence of inhibitors. Each compound was dissolved in DMSO and further diluted with the buffer used to solubilize the amylin. The final mixture contained 15 μM amylin, 10 μM of the test compound, 2% DMSO or 15 μM amylin, and 2% DMSO without the compound (negative control). Also 15 μM amylin, 10 μM of oleuropein aglycone and 2% DMSO was used as a positive control. The prepared solutions were incubated under physiological conditions (pH 7.4 and 37 °C) for amylin aggregation. Samples were incubated for 36 h to test for amylin aggregation, and measurements were conducted at different time points.
DLS (Zetasizer, Malvern) was used at a wavelength of 633 nm to measure the average diffusion coefficient distribution of amylin particles and the aggregation percentage. Samples were diluted 10-fold, and 50 μL was placed into a 96-well plate. The total light scattering intensity at a 90° angle was collected using a 10 s averaging acquisition time. Particle translational diffusion coefficients were calculated from autocorrelated light intensity data (usually 30–40 points) and converted to the hydrodynamic radius (R h) using the Stokes–Einstein equation. A distribution plot of intensity versus R h was calculated using the Sedfit 9.3 analysis software, and intensity-weighted mean R h values were obtained from each peak.

human amylin (hIAPP) [2] = target: T1, human amylin (hIAPP); test: Thioflavin T (ThT) fluorescence assay of amylin aggregation; assay type: biochemical; details: for inhibition at 10 µM: read-out: ThT inhibition % (mean ± SEM), compound 10 μM, amylin 15 μM, 36 h incubation, 3 trials; for ThT inhibition % (mean ± SEM): compound 10 μM, amylin 15 μM, 36 h incubation, 3 trials
Protocol: as §1
Amylin aggregation was monitored by characteristic changes in Thioflavin T (ThT) fluorescence intensity. A ThT stock solution (15 μM) was prepared in deionized water at pH 7.4. The amylin samples were mixed with the ThT solution and allowed to incubate. ThT fluorescence was measured using the PerkinElmer model LS 55 fluorescence spectrophotometer (PerkinElmer, USA), with an excitation wavelength of 440 nm and an emission wavelength of 480 nm. ,− The emission and excitation slits were set to 5 nm, and a 1 cm cuvette was used for all experiments. Nonspecific background fluorescence was subtracted from the samples using appropriate blanks in the absence of proteins. Each experiment was performed in triplicate.

human amylin (hIAPP) [3] = target: T1, human amylin (hIAPP); test: as above; assay type: biochemical; details: read-out: IC50 of amylin aggregation inhibition
human amylin (hIAPP) [4] = target: T1, human amylin (hIAPP); test: Kinetic analysis of amylin aggregation (ThT, two-step autocatalytic aggregation model); assay type: biochemical; details: mean ± S.D.; for t 0 (time point when the aggregation starts): 10% of highest ThT fluorescence; for t 1/2 (aggregation halftime): 50% of highest ThT fluorescence; for t 1 (aggregation endpoint): 90% of highest ThT fluorescence; for k / k e (elongation constant) / k n (nucleation constant) / ρ (ratio of kn to k): ThT data, autocatalytic aggregation model
Protocol: Kinetic analysis was performed according to the model of autocatalytic aggregation. According to Sabaté et al., aggregation is a two-step process, comprising nucleation (described by the k n constant) and fibrillation phases (represented by the k e constant). Two constants (k n and k e) are calculated using the eq : 5 f=ρ{e^[(1+ρ)kt]−1}/{1+ρe^[(1+ρ)kt]} where k = k e a (where a represents the initial concentration of the aggregating peptide), f stands for a fraction of the fibrillar form in the system, and ρ denotes the dimensionless ratio of k n to k. The parameters k and ρ were calculated first, then k n and k e.
Data were normalized as a fraction of the highest fluorescence from the three trials and fitted into the model of autocatalytic aggregation. The same procedure was repeated for the remaining trials. The second calculation aimed to find the time parameters of the aggregation process: t 0 (time point when the aggregation starts), t 1/2 (aggregation halftime), and t 1 (aggregation endpoint). t 0, t 1/2, and t 1 were calculated as 10%, 50%, and 90% of the highest fluorescence measurements from the three trials, respectively. All calculations were performed using GraphPad Prism 9.5.1, Statistica 13.3.721.1, and Microsoft Excel 2304.

Aβ = test system: Aβ; design: method as in Panek et al.; details: ref Panek et al.; cited from earlier work
Pancreatic INS-1E cells = test: MTT cytotoxicity assay of amylin aggregates aged with or without inhibitors; assay type: cell-based
Protocol: In this study, we utilized Pancreatic INS-1E cells (Department of Cell Physiology and Metabolism, University Medical Center, Switzerland) due to their close physiological similarity to native β-cells, making them highly relevant to our experimental objectives. Pancreatic INS-1E cells were grown in RPMI 1640 medium, supplemented with 2 mM glutamine, 5% fetal calf serum, 10 mM HEPES (pH 7.4), 1 mM sodium pyruvate, 50 μM 2-mercaptoethanol, 100 units/mL penicillin, and 0.1 mg/mL streptomycin. The culturing environment was maintained at 37 °C, 5% CO2, pH 7.4.
The toxicity of human amylin aggregates in the presence or absence of different compounds in the presence of 2% DMSO was assessed by the 3-(4,5-dimethylthiazol-2-yl)-2,5-diphenyltetrazolium bromide (MTT) reduction assay. The cells were cultured and then seeded into 96-well plates and grown for 24 h prior to exposure to different intermediates of amylin or a mixture of amylin with the MTDLs. The final amylin concentration within the culture medium was 5 μM. Cell viability was expressed as the percentage of MTT reduction, using cells treated with the same buffer volume as a reference (100% MTT reduction). The values (averages ± S.D.) were obtained from three independent experiments.

Row | SMILES | inhibition at 10 µM (human amylin (hIAPP) [1]) [%] | inhibition at 10 µM (human amylin (hIAPP) [2]) [%] | IC50 (human amylin (hIAPP) [3]) [µM] | ThT inhibition % (mean ± SEM) (human amylin (hIAPP) [2]) [%] | t 0 (time point when the aggregation starts) (human amylin (hIAPP) [4]) [h] | t 1/2 (aggregation halftime) (human amylin (hIAPP) [4]) [h] | t 1 (aggregation endpoint) (human amylin (hIAPP) [4]) [h] | k (human amylin (hIAPP) [4]) [h^–1] | k e (elongation constant) (human amylin (hIAPP) [4]) | k n (nucleation constant) (human amylin (hIAPP) [4]) | ρ (ratio of kn to k) (human amylin (hIAPP) [4]) | inhibition of Aβ aggregation in the ThT assay (Aβ) | average particle size of amylin by DLS (human amylin (hIAPP) [1]; amylin + compound) [nm] | cell viability difference versus the sample with amylin fibrils (Pancreatic INS-1E cells; INS-1E cells 24 h, amylin aggregates aged 36 h with 2.92 μM compound 18 or 3.31 μM compound 21) | effect on INS-1E cell viability in presence of amylin (Pancreatic INS-1E cells; INS-1E cells cultured with the MTDLs)
1 | COc1ccc(CNCC(O)CCN2CCN(Cc3ccccc3)CC2)cc1 (stereo not shown) [Compound 10] | 27.8 ± 3 | 31.1 ± 0.9 | – | – | – | – | – | – | – | – | – | – | – | – | –
2 | OC(CCN1CCN(C(c2ccccc2)c2ccccc2)CC1)CNCc1ccccc1 (stereo not shown) [Compound 11] | 19 ± 1.8 | 20.8 ± 0.8 | – | – | – | – | – | – | – | – | – | – | – | – | –
3 | COc1ccc(CNCC(O)CCN2CCN(C(c3ccccc3)c3ccccc3)CC2)cc1 (stereo not shown) [Compound 12] | 20.7 ± 2 | 11.9 ± 0.7 | – | – | – | – | – | – | – | – | – | – | – | – | –
4 | CC(C)(C)c1cccc(CNCC(O)CCN2CCN(C(c3ccccc3)c3ccccc3)CC2)c1 (stereo not shown) [Compound 13] | 86.7 ± 4.5 | ~75 | 3.75 | 74.7 ± 0.7 | 12.49 ± 0.19 | 20.41 ± 0.20 | 28.41 ± 0.23 | 0.2729 ± 0.0025 | 18195 ± 165 M^–1h^–1 | 0.0011 ± 0.0001 h^–1 | 0.0038 ± 0.0002 | 81.4% and ~82% | – | – | –
5 | COc1ccc(CNCC(O)CCN2CCN(C(c3ccc(F)cc3)c3ccc(F)cc3)CC2)cc1 (stereo not shown) [Compound 14] | 7.8 ± 0.5 | 5 ± 4.4 | – | – | – | – | – | – | – | – | – | – | – | – | –
6 | OC(CNCc1ccccc1)CNCC(c1ccccc1)c1ccccc1 (stereo not shown) [Compound 15] | 25 ± 2.5 | 37.4 ± 0.4 | – | – | – | – | – | – | – | – | – | – | – | – | –
7 | OC(CNCCC(c1ccccc1)c1ccccc1)CNCc1ccccc1 (stereo not shown) [Compound 16] | 77.9 ± 6 | 58.8 ± 0.7 | 3.1 | – | 11.03 ± 0.22 | 18.22 ± 0.28 | 25.52 ± 0.37 | 0.2996 ± 0.0048 | 19973 ± 320 M^–1h^–1 | 0.0012 ± 0.0001 h^–1 | 0.0042 ± 0.0003 | – | 10 | – | –
8 | CC(C)(C)c1cccc(CNCC(O)CNCC(c2ccccc2)c2ccccc2)c1 (stereo not shown) [Compound 17] | 99 ± 6.5 | > 88 | 3.65 | 88.1 ± 0.9 | 13.13 ± 1.09 | 21.25 ± 0.20 | 29.48 ± 1.02 | 0.2687 ± 0.0374 | 17913 ± 2489 M^–1h^–1 | 0.0010 ± 0.0006 h^–1 | 0.0040 ± 0.0028 | – | – | – | –
9 | OC(CCNCC(c1ccccc1)c1ccccc1)CNCc1ccccc1 (stereo not shown) [Compound 19] | 27.5 ± 3 | 33.7 ± 1.1 | – | – | – | – | – | – | – | – | – | – | – | – | –
10 | OC(CCNCCC(c1ccccc1)c1ccccc1)CNCc1ccccc1 (stereo not shown) [Compound 20] | 20.4 ± 2.5 | 12.6 ± 0.4 | – | – | – | – | – | – | – | – | – | – | – | – | –
11 | CC(C)(C)c1cccc(CNCC(O)CCNCC(c2ccccc2)c2ccccc2)c1 (stereo not shown) [Compound 21] | 99.2 ± 6 | > 88 | 3.53 | 90.8 ± 1.4 | 9.54 ± 0.29 | 18.66 ± 0.56 | 28.19 ± 1.42 | 0.2273 ± 0.0221 | 15155 M^–1h^–1 and 15155 ± 1477 M^–1h^–1 | 0.003 h^–1 and 0.0032 ± 0.0007 h^–1 | 0.0145 ± 0.0044 | – | – | approximately 30 % points | retained cell viability
